# Patent US20150307491A1, “SUBSTITUTED PYRIDOPYRAZINES AS SYK INHIBITORS” (HUTCHISON MEDIPHARMA LIMITED, priority 2012, published 2015)
# pIC50: −log10 of the molar value.
# Test system: RBL-2H3 cells
# Experiment: IgE-induced Beta-hexosaminidase secretion in RBL-2H3 cells
# Type: cell-based
# Details: Rattus norvegicus; RBL-2H3 cells sensitized with SPE-7, stimulated with DNP-BSA
# Experimental: For the determination of IgE-induced Beta-hexosaminidase secretion, RBL-2H3 cells (SIBS) are seeded in 96 well plates at 4×10^4 cells per well and incubated in MEM media with 15% FBS and Glutamine ([…]) for 4 hours and sensitized with 0.5 ug/ml of SPE-7 overnight. Cells are washed 3 times with Tyrode's buffer and incubated in the presence or absence of various concentrations of the testing compound for 20 min at 37° C., 5% CO2. Cells are stimulated by adding 10 μL of DNP-BSA solution (150 ng/mL) to each well and incubating for 45 minutes at 37° C., 5% CO2. Then, 45 μL of the supernatant is taken and incubated with 100 μL of 1 mM 4-Nitrophenyl N-acetyl-β-D-glucosaminide (Sigma, Cat. No. N9376), which is diluted in 0.05 M citrate buffer (pH 4.5), for 1.5 hr at 37° C. The reactions are quenched by adding 185 μL of 0.05 M sodium carbonate buffer (pH 10.0). Plates are read at 405 nm on Multiskan (MK 3).
row,SMILES,pIC50
1,CS(=O)(=O)N1CCO[C@H](COc2nc(-c3ccc4c(c3)OCO4)cc3nccnc23)C1 [Compound 110],6.00 to 7.00
2,CNS(=O)(=O)N1CCO[C@H](COc2nc(-c3ccc(N4CCOCC4)cc3)cc3nccnc23)C1 [Compound 55],6.00 to 7.00
3,CN(C)c1ccc(-c2cc3nccnc3c(OC[C@@H]3CN(C(=O)CC#N)CCO3)n2)cc1 [Compound 76],7.00 to 9.00
4,CN1CCN(c2ccc(-c3cc4nccnc4c(O[C@@H]4CCOC4)n3)cc2)CC1 [Compound 125],7.00 to 9.00
5,COCCS(=O)(=O)N1CCO[C@H](COc2nc(-c3ccc(N4CCOCC4)cc3)cc3nccnc23)C1 [Compound 66],6.00 to 7.00
6,CNC(=O)N1CCO[C@H](COc2nc(-c3ccc(N(C)C)cc3)cc3nccnc23)C1 [Compound 137],7.00 to 9.00
7,CS(=O)(=O)N1CCO[C@H](COc2nc(-c3ccc(N4CCCCC4)cc3)cc3nccnc23)C1 [Compound 21],7.00 to 9.00
8,COc1ccc(-c2cc3nccnc3c(OC[C@@H]3CN(S(C)(=O)=O)CCO3)n2)cc1 [Compound 38],6.00 to 7.00
9,CS(=O)(=O)N1CCO[C@H](COc2nc(-c3ccc(N4CCOCC4)c(F)c3)cc3nccnc23)C1 [Compound 7],6.00 to 7.00
10,CN1CCN(c2ccc(-c3cc4nccnc4c(OC[C@@H]4CN(S(N)(=O)=O)CCO4)n3)cc2)CC1 [Compound 64],6.00 to 7.00
11,CC(C)(O)C1CCN(c2ccc(-c3cc4nccnc4c(OC[C@@H]4CN(S(C)(=O)=O)CCO4)n3)cc2)CC1 [Compound 22],7.00 to 9.00
12,CCS(=O)(=O)N1CCN(c2ccc(-c3cc4nccnc4c(OC[C@@H]4CN(C(C)=O)CCO4)n3)cc2)CC1 [Compound 25],6.00 to 7.00
13,NS(=O)(=O)N1CCO[C@H](COc2nc(-c3ccc(N4CCCC4)cc3)cc3nccnc23)C1 [Compound 30],6.00 to 7.00
14,CCS(=O)(=O)N1CCC(c2ccc(-c3cc4nccnc4c(OC[C@@H]4CN(C(C)=O)CCO4)n3)cc2)CC1 [Compound 23],6.00 to 7.00
15,CCN1CCN(c2ccc(-c3cc4nccnc4c(OC[C@@H]4CN(C(=O)C(F)F)CCO4)n3)cc2)CC1 [Compound 17],7.00 to 9.00
16,CS(=O)(=O)N1CCO[C@H](COc2nc(-c3ccc4ncccc4c3)cc3nccnc23)C1 [Compound 111],6.00 to 7.00
17,CC1CN(c2ccc(-c3cc4nccnc4c(OC[C@@H]4CN(S(C)(=O)=O)CCO4)n3)cc2)CCO1 (some centres unmarked) [Compound 18],7.00 to 9.00
18,CN(C)c1ccc(-c2cc3nccnc3c(OC3CCCOC3)n2)cc1 (centres unmarked) [Compound 127],7.00 to 9.00
19,CN(C)CCS(=O)(=O)N1CCO[C@H](COc2nc(-c3ccc(N4CCOCC4)cc3)cc3nccnc23)C1 [Compound 65],6.00 to 7.00
20,CS(=O)(=O)N1CCO[C@H](COc2nc(-c3ccc(N4CCOCC4)cc3)cc3nccnc23)C1 [Compound 12],7.00 to 9.00
21,CN(C)c1ccc(-c2cc3nccnc3c(OC[C@@H]3CN(C(=O)[C@H]4CC[C@H](O)CC4)CCO3)n2)cc1 [Compound 74],6.00 to 7.00
22,COC1CCN(c2ccc(-c3cc4nccnc4c(OC[C@@H]4CN(S(C)(=O)=O)CCO4)n3)cc2)CC1 [Compound 31],7.00 to 9.00
23,CN1CCN(c2ccc(-c3cc4nccnc4c(OC[C@@H]4CN(S(C)(=O)=O)CCO4)n3)cc2)CC1 [Compound 13],7.00 to 9.00
24,COC1CCN(c2ccc(-c3cc4nccnc4c(OC[C@@H]4CN(C(C)=O)CCO4)n3)cc2)CC1 [Compound 48],6.00 to 7.00
25,CN1CCN(c2ccc(-c3cc4nccnc4c(OC[C@@H]4CN(C(=O)C(F)F)CCO4)n3)cc2)CC1 [Compound 16],7.00 to 9.00

row,SMILES,pIC50
1,CN(CC#N)CCS(=O)(=O)N1CCO[C@H](COc2nc(-c3ccc(N(C)C)cc3)cc3nccnc23)C1 [Compound 104],6.00 to 7.00
2,CNc1ccc(-c2cc3nccnc3c(OC[C@@H]3CN(C(=O)[C@H]4CCOC4)CCO3)n2)cc1 [Compound 50],6.00 to 7.00
3,"Cc1nccn1CCS(=O)(=O)N1CCO[C@H](COc2nc(-c3ccc(N(C)C)cc3)cc3nccnc23)C1 [Compound 101, (S)—N,N-dimethyl-4-(5-((4-(2-(2-methyl-1H-imidazol-1-yl)ethylsulfonyl)morpholin-2-yl)methoxy)pyrido[4,3-b]pyrazin-7-yl)aniline]",6.00 to 7.00
4,CN(C)c1ccc(-c2cc3nccnc3c(OC[C@@H]3CN(S(=O)(=O)CCN4CC[C@H](O)C4)CCO3)n2)cc1 [Compound 103],6.00 to 7.00
5,Cn1ncc2cc(-c3cc4nccnc4c(OC[C@@H]4CN(S(C)(=O)=O)CCO4)n3)ccc21 [Compound 105],7.00 to 9.00
6,CN1CCC(c2ccc(-c3cc4nccnc4c(OC[C@@H]4CN(S(C)(=O)=O)CCO4)n3)cc2)CC1 [Compound 8],6.00 to 7.00
7,CN(C)c1ccc(-c2cc3nccnc3c(OC[C@@H]3CN(C(=O)c4cccnc4)CCO3)n2)cc1 [Compound 78],7.00 to 9.00
8,NS(=O)(=O)N1CCO[C@H](COc2nc(-c3ccc(N4CCC(F)(F)CC4)cc3)cc3nccnc23)C1 [Compound 29],6.00 to 7.00
9,O=S(=O)(C1CC1)N1CCO[C@H](COc2nc(-c3ccc(N4CCOCC4)cc3)cc3nccnc23)C1 [Compound 83],7.00 to 9.00
10,CN(C)c1ccc(-c2cc3nccnc3c(OC[C@@H]3CN(C(=O)C4CC(F)(F)C4)CCO3)n2)cc1 [Compound 71],6.00 to 7.00
11,CC(=O)N1CCO[C@H](COc2nc(-c3ccc(N4CCN(CCO)CC4)cc3)cc3nccnc23)C1 [Compound 49],6.00 to 7.00
12,CN(C)c1ccc(-c2cc3nccnc3c(OC[C@@H]3CN(C(=O)C4CCCC4)CCO3)n2)cc1 [Compound 98],6.00 to 7.00
13,CC(=O)N1CCN(c2ccc(-c3cc4nccnc4c(OC[C@@H]4CN(S(C)(=O)=O)CCO4)n3)cc2)CC1 [Compound 122],7.00 to 9.00
14,CN(C)c1ccc(-c2cc3nccnc3c(OC[C@@H]3CN(C(=O)C4CCOCC4)CCO3)n2)cc1 [Compound 73],6.00 to 7.00
15,Cc1cc(-c2cc3nccnc3c(OC[C@@H]3CN(S(C)(=O)=O)CCO3)n2)ccc1N(C)C [Compound 134],7.00 to 9.00
16,CN(C)c1ccc(-c2cc3nccnc3c(OC[C@@H]3CN(C(=O)CCC#N)CCO3)n2)cc1 [Compound 77],6.00 to 7.00
17,CN(C)c1ccc(-c2cc3nccnc3c(O[C@@H]3CCOC3)n2)cc1 [Compound 123],7.00 to 9.00
18,CN(C)c1ccc(-c2cc3nccnc3c(OC[C@@H]3CN(C(=O)Cc4c[nH]cn4)CCO3)n2)cc1 [Compound 84],6.00 to 7.00
19,CN(C)c1ccc(-c2cc3nccnc3c(OC[C@@H]3CN(C(N)=O)CCO3)n2)cc1 [Compound 136],7.00 to 9.00
20,CCN(CC)c1ccc(-c2cc3nccnc3c(OC[C@@H]3CN(S(C)(=O)=O)CCO3)n2)cc1 [Compound 119],7.00 to 9.00
21,CNC(=O)CS(=O)(=O)N1CCO[C@H](COc2nc(-c3ccc(N(C)C)cc3)cc3nccnc23)C1 [Compound 99],6.00 to 7.00
22,CCN(CC)c1ccc(-c2cc3nccnc3c(OC[C@@H]3CN(C(C)=O)CCO3)n2)cc1 [Compound 131],7.00 to 9.00
23,CC(=O)N1CCO[C@H](COc2nc(-c3ccc(N4CCOCC4)cc3)cc3nccnc23)C1 [Compound 24],6.00 to 7.00
24,CS(=O)(=O)N1CCO[C@H](COc2nc(-c3ccc(C4CCOCC4)cc3)cc3nccnc23)C1 [Compound 11],7.00 to 9.00
25,"CS(=O)(=O)N1CCO[C@H](COc2nc(-c3ccc(C4CCN(CCO)CC4)cc3)cc3nccnc23)C1 [Compound 58, (S)-2-(4-(4-(5-((4-(methylsulfonyl)morpholin-2-yl)methoxy)pyrido[3,4-b]pyrazin-7-yl)phenyl)piperidin-1-yl)ethanol]",6.00 to 7.00
